For orientation: IC50 means the concentration needed to halve the response being measured. The low end stands for inhibition by little substance, the high end for a need for much substance. The share remaining is what is left of the initial amount, in per cent. Low values mean more turnover, high ones less turnover.

In one data set the target is Aurora kinase B (Homo sapiens, UniProt Q96GD4).
The test system of data set [1] is HeLa. As to the kind of experiment: cells. As to conditions: Homo sapiens.
Description: (§1) Antiproliferative activity against human HeLa cells assessed as 14C-thymidine incorporation by Micro-Beta radioactivity counting analysis
The target of another data set is Cytochrome P450 3A4 (Homo sapiens, UniProt P08684).
Cytochrome P450 3A4, sequence (P08684 whole entry): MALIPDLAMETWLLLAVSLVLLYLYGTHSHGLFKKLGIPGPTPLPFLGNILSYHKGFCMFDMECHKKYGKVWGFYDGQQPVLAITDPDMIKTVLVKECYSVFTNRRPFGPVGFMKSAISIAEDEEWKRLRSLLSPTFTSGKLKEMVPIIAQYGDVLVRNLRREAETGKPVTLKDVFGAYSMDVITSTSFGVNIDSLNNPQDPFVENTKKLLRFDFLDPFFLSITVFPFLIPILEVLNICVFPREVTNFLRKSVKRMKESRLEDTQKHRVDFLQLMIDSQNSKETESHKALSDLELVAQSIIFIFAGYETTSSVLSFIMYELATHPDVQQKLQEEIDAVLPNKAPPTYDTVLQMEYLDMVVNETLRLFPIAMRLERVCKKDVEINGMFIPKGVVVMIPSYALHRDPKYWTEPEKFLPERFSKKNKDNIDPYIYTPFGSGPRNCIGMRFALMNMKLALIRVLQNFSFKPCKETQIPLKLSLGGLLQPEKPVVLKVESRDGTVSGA
A short description of data set [2]: in vitro. The conditions noted are these: human, liver microsomes.
Description: Metabolic stability human liver microsomes assessed as stability at 5 uM by LC/MS-MS analysis
A short description of data set [3]: in vitro. The conditions noted are these: mouse, liver microsomes. (In general: Liver microsomes are a subcellular fraction often used to study metabolism.)
Description: Metabolic stability mouse liver microsomes assessed as stability at 5 uM by LC/MS-MS analysis
The test system of data set [4] is HeLa.
Description: as §1

Aurora kinase B, sequence (Q96GD4 whole entry): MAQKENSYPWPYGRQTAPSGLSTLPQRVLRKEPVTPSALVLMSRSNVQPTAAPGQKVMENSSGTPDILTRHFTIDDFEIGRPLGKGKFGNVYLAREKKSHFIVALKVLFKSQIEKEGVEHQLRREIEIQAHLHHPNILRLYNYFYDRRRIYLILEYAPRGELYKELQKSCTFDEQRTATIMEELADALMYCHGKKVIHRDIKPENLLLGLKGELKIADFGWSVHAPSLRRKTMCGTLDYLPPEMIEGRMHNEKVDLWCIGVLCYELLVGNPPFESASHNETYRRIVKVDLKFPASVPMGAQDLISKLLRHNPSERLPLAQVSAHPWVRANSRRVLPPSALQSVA
Description for Aurora kinase B: Inhibition of poly-histidine tagged full length recombinant aurora B (unknown origin) assessed as phosphorylation of NuMA-histidine substrate by scintillation counting analysis
Description for Cytochrome P450 3A4: Inhibition of human recombinant CYP3A4 co-expressed with human P450 reductase/human b5 reductase using 7-benzyloxyquinoline substrate

As to `O=C1CCCC2=C1C(c1ccc(Sc3nc4ccccc4[nH]3)o1)c1c[nH]c(C(=O)O)c1N2` (single isomer, unassigned; (+)), the IC50 against Aurora kinase B is 16 nM; in the data set on HeLa [1], 8750 nM.

On to `CCOC(=O)c1[nH]cc2c1NC1=C(C(=O)CN(C(=O)CN)C1)[C@H]2c1ccc(Sc2nc3ccccc3[nH]2)o1`, for which the IC50 was determined as 4 nM against Aurora kinase B and 500 nM on Cytochrome P450 3A4. The share remaining at 5 µM in the data set “in vitro [2]” came out at 65%; in the data set “in vitro [3]”, 30%.

With `CCOC(=O)c1[nH]cc2c1NC1=C(C(=O)CCC1)C2c1cccc(Sc2nc3ccccc3[nH]2)c1` (racemic), the IC50 against Aurora kinase B stood at 7 nM; in the data set with HeLa [1], 9700 nM.

On to `CCOC(=O)c1[nH]cc2c1NC1=C(C(=O)CCC1)C2c1ccc(Sc2nc3cc(Cl)ccc3[nH]2)o1` (racemic), for which the share remaining at 5 µM in the data set “in vitro [2]” is 90%; in the data set “in vitro [3]”, 88%.

`COc1ccc(Oc2cccc(C3C4=C(CNCC4=O)Nc4n[nH]cc43)c2)cc1` (racemic) returned an IC50 with HeLa [1] above 10000 nM.

Compound `CCOC(=O)c1[nH]cc2c1NC1=C(C(=O)CN(CC)C1)C2c1ccc(Sc2nc3ccccc3[nH]2)o1` (racemic) returned an IC50 against Aurora kinase B of 6 nM. Further, the figures for the fraction remaining at 5 µM in the data set “in vitro [2]” and in “in vitro [3]” were 65% and 99%, respectively.

As to `CCOC(=O)c1[nH]cc2c1NC1=C(C(=O)CNC1)C2c1ccc(Sc2nc3c(F)cccc3[nH]2)o1` (racemic), on Aurora kinase B, the IC50 was 3 nM.

As to `O=C1CCCC2=C1C(c1ccc(Sc3nc4ccccc4[nH]3)o1)c1c[nH]cc1N2` (single isomer, unassigned; (+)), the concentration for half-maximal inhibition (IC50) against Aurora kinase B was determined as 127 nM; with HeLa [1] it was 3700 nM.

Turning to `CCOC(=O)c1[nH]cc2c1NC1=C(C(=O)CCC1)C2c1ccnc(Sc2nc3ccccc3[nH]2)c1` (racemic), the IC50 against Aurora kinase B was 1100 nM; in the data set with HeLa [1], above 10000 nM.

`CCOC(=O)c1[nH]cc2c1NC1=C(C(=O)CCC1)C2c1cccc(Oc2nc3ccccc3[nH]2)c1` (racemic): the IC50 on Aurora kinase B was 12 nM; with HeLa [1], 200 nM.

Compound `CCOC(=O)c1[nH]cc2c1NC1=C(C(=O)CCC1)C2c1ccc(Sc2nc3ccccc3[nH]2)o1` (single isomer, unassigned; (-)) returned an IC50 in the data set on HeLa [4] of 7000 nM.

On to `CCOC(=O)c1[nH]cc2c1NC1=C(C(=O)CNC1)C2c1ccc(Sc2nc3ccccc3[nH]2)o1` (racemic), for which the IC50 against Aurora kinase B was determined as 2 nM; against Cytochrome P450 3A4, 170 nM. The results for the share remaining at 5 µM in “in vitro [2]” and in the data set “in vitro [3]” were 66% and 60%, respectively.

In turn, `CCOC(=O)c1[nH]cc2c1NC1=C(C(=O)CNC1)C2c1ccc(Sc2nc3cccc(Cl)c3[nH]2)o1` (racemic) returned an IC50 on Aurora kinase B of 5 nM.

Take `O=C1CNCC2=C1C(c1ccc(Sc3nc4ccccc4[nH]3)o1)c1c[nH]nc1N2` (racemic): the IC50 in the data set on HeLa [1] was above 10000 nM.

On to `NC(=O)c1[nH]nc2c1NC1=C(C(=O)CCC1)C2c1ccc(Sc2nc3ccccc3[nH]2)o1` (racemic), for which the half-inhibitory concentration (IC50) was 19 nM against Aurora kinase B and above 10000 nM with HeLa [1].

For `CCOC(=O)c1[nH]cc2c1NC1=C(C(=O)CCC1)C2c1ccc(Sc2nc3c(N)cccc3[nH]2)o1` (racemic), the IC50 on Aurora kinase B worked out at 25 nM. The figures for the amount remaining at 5 µM in “in vitro [2]” and in the data set “in vitro [3]” were 23% and 35%, respectively.

Regarding `CCOC(=O)c1[nH]cc2c1NC1=C(C(=O)CN(Cc3ccccc3)C1)C2c1ccc(Sc2nc3ccccc3[nH]2)o1` (racemic), 8 nM corresponded to half-maximal inhibition at Aurora kinase B (IC50).

In turn, `COC(=O)c1[nH]cc2c1NC1=C(C(=O)CCC1)C2c1ccc(Sc2nc3ccccc3[nH]2)o1` (single isomer, unassigned; (+)) came in with an IC50 in the data set on HeLa [1] of 26 nM.

Turning to `CCOC(=O)c1[nH]cc2c1NC1=C(C(=O)CCC1)C2c1cccc(Sc2nc3ccccc3[nH]2)n1` (racemic), the IC50 is 7 nM on Aurora kinase B and 4400 nM in the data set on HeLa [1].

Consider `CCOC(=O)c1[nH]cc2c1NC1=C(C(=O)CN(C(=O)CN)C1)[C@H]2c1ccc(Sc2nc3c(F)cccc3[nH]2)o1`, for which the IC50 against Aurora kinase B stood at 2 nM. The amount remaining at 5 µM in “in vitro [2]” was below 40%; in the data set “in vitro [3]”, 17%.

In the data set with HeLa [1], `O=C1CNCC2=C1C(c1cccc(Oc3cc(Cl)cc(Cl)c3)c1)c1c[nH]nc1N2` (racemic) displayed an IC50 above 10000 nM.

As to `O=C1CCCC2=C1C(c1ccc(Sc3nc4ccccc4[nH]3)o1)c1cn[nH]c1N2` (racemic), the IC50 was 5 nM against Aurora kinase B and 300 nM in the data set on HeLa [1].

Take `CCOC(=O)c1[nH]cc2c1NC1=C(C(=O)CCC1)C2c1ccc(Sc2nc3ccccc3[nH]2)o1` (racemic): in the data set with HeLa [4], the IC50 is 15 nM.

On Cytochrome P450 3A4, `CCOC(=O)c1[nH]cc2c1NC1=C(C(=O)CCC1)C2c1ccc(Sc2nc3cc(F)ccc3[nH]2)o1` (racemic) returned an IC50 of 12000 nM. The amount remaining at 5 µM in “in vitro [2]” was 73%; in “in vitro [3]” it was 77%.

In the data set on HeLa [1], `Nc1nc(O)c2c(n1)NC1=C(C(=O)CCC1)C2c1ccc(Sc2nc3ccccc3[nH]2)o1` (racemic) registered an IC50 above 10000 nM.

On to `COC(=O)c1csc2c1NC1=C(C(=O)CCC1)C2c1ccc(Sc2nc3ccccc3[nH]2)o1` (racemic), for which the IC50 came out at 5 nM against Aurora kinase B and 127 nM in the data set with HeLa [1].

As to `CCOC(=O)c1[nH]cc2c1NC1=C(C(=O)CCC1)C2c1cnc(Sc2nc3ccccc3[nH]2)s1` (racemic), the IC50 with HeLa [1] was above 10000 nM.

On Cytochrome P450 3A4, `CCOC(=O)c1[nH]cc2c1NC1=C(C(=O)CCC1)C2c1ccc(Sc2nc3cc(F)c(F)cc3[nH]2)o1` (racemic) returned an IC50 of 8400 nM. The fraction remaining at 5 µM in the data set “in vitro [2]” amounted to 58%; in the data set “in vitro [3]”, 55%.

Turning to `CCOC(=O)c1[nH]cc2c1NC1=C(C(=O)CCC1)C2c1ccc(Sc2nc3c(F)c(F)c(F)cc3[nH]2)o1` (racemic), the amount remaining at 5 µM in “in vitro [2]” was 46%; in “in vitro [3]”, 22%.

On to `O=C1CNCC2=C1C(c1cccc(Oc3ccccc3)c1)c1c[nH]nc1N2` (racemic), for which the IC50 with HeLa [1] is above 10000 nM.

As for `CCOC(=O)c1[nH]cc2c1NC1=C(C(=O)CCC1)C2c1cc(Sc2nc3ccccc3[nH]2)cs1` (racemic), the IC50 at Aurora kinase B is 2 nM; in the data set with HeLa [1], 1500 nM.

For `O=C1CNCC2=C1C(c1cccc(Oc3ccc(Cl)cc3)c1)c1c[nH]nc1N2` (racemic), the IC50 in the data set with HeLa [1] is above 10000 nM.

`CCOC(=O)c1[nH]cc2c1NC1=C(C(=O)CCC1)C2c1ccc(Sc2nc3ccc(F)c(F)c3[nH]2)o1` (racemic): the IC50 on Cytochrome P450 3A4 stood at 34000 nM. Further, the fraction remaining at 5 µM in “in vitro [2]” and in the data set “in vitro [3]” was 66% throughout.

For `CCOC(=O)c1[nH]cc2c1NC1=C(C(=O)CCC1)C2c1ccc(Sc2nc3c(O)cccc3[nH]2)o1` (racemic), the IC50 on Aurora kinase B was 8 nM; on Cytochrome P450 3A4 it was 490 nM. Besides, the share remaining at 5 µM in “in vitro [2]” was 40%; in “in vitro [3]” it was 37%.

Consider `CCOC(=O)c1[nH]nc2c1NC1=C(C(=O)CCC1)C2c1ccc(Sc2nc3ccccc3[nH]2)o1` (racemic), for which the IC50 against Aurora kinase B was determined as 33 nM; in the data set with HeLa [1], 7700 nM.

For `CCOC(=O)c1[nH]cc2c1NC1=C(C(=O)CCC1)C2c1ccc(Sc2nc3cccc(F)c3[nH]2)o1` (racemic), the IC50 came out at 6 nM at Aurora kinase B and 4500 nM against Cytochrome P450 3A4. Besides, the fraction remaining at 5 µM in the data set “in vitro [2]” was 47%; in the data set “in vitro [3]”, 58%.

For the compound `CCOC(=O)c1[nH]cc2c1NC1=C(C(=O)CCC1)C2c1ccc(Sc2nc3ccccc3[nH]2)s1` (racemic), the values for the IC50 against Aurora kinase B and in the data set with HeLa [1] were 180 nM and 4600 nM, respectively.

As for `CCOC(=O)c1[nH]cc2c1NC1=C(C(=O)CCC1)C2c1ccc(Sc2nc3cccc(Cl)c3[nH]2)o1` (racemic), the IC50 on Aurora kinase B turned out to be 7 nM; on Cytochrome P450 3A4, 50 nM. For the same compound, the amount remaining at 5 µM in the data set “in vitro [2]” worked out at 68%; in the data set “in vitro [3]”, 85%.

For the compound `O=C1CNCC2=C1C(c1cccc(Oc3ccc(Cl)c(Cl)c3)c1)c1c[nH]nc1N2` (racemic), the IC50 in the data set on HeLa [1] was above 10000 nM.

On to `CCOC(=O)c1[nH]cc2c1NC1=C(C(=O)CCC1)C2c1ccc(Sc2nc3c(F)cc(F)cc3[nH]2)o1` (stereo not drawn), for which the IC50 at Aurora kinase B came out at 4 nM; against Cytochrome P450 3A4 it was 1000 nM. For the same compound, the fraction remaining at 5 µM was 66% in “in vitro [2]” and 36% in the data set “in vitro [3]”.

Regarding `CCOC(=O)c1[nH]cc2c1NC1=C(C(=O)CCC1)C2c1ccc(Sc2nc3ccccc3[nH]2)o1` (single isomer, unassigned; (+)), the figures for the half-maximal inhibitory concentration (IC50) against Cytochrome P450 3A4 and with HeLa [4] were 190 nM and 16 nM, respectively. In addition, the values for the fraction remaining at 5 µM in the data set “in vitro [2]” and in “in vitro [3]” were 69% and 83%, respectively.

Compound `CCOC(=O)c1[nH]cc2c1NC1=C(C(=O)CN(C(=O)OC(C)(C)C)C1)C2c1ccc(Sc2nc3ccccc3[nH]2)o1` (racemic) had an IC50 against Aurora kinase B of 26 nM.

As to `CCOC(=O)c1[nH]cc2c1NC1=C(C(=O)CCC1)C2c1ccc(Sc2nc3cccnc3[nH]2)o1` (racemic), the amount remaining at 5 µM in “in vitro [2]” and in the data set “in vitro [3]” was 49% throughout.

For `O=C1CCCC2=C1C(c1ccc(Sc3nc4ccccc4[nH]3)o1)c1n[nH]cc1N2` (racemic), the IC50 at Aurora kinase B is 500 nM; in the data set with HeLa [1], above 10000 nM.

The values are drawn from ChEMBL document CHEMBL3392969, “SAR156497, an exquisitely selective inhibitor of aurora kinases” (J Med Chem, 2015).
